Legend:
[1] = Drug metabolism in rat hepatocytes assessed as N-carbamimidoyl-2-(difluoromethyl)-5-(pivalamidomethyl)nicotinamide formation at 2 uM after 4 hrs by LC-MS/MS analysis; format: ADME, cell-based, Hepatocyte
[2] = Drug metabolism in dog hepatocytes assessed as N-carbamimidoyl-2-(difluoromethyl)-5-(pivalamidomethyl)nicotinamide formation at 2 uM after 4 hrs by LC-MS/MS analysis; format: ADME, cell-based, Canis lupus familiaris, Hepatocyte
[3] = Drug metabolism in human hepatocytes assessed as N-carbamimidoyl-2-(difluoromethyl)-5-(pivalamidomethyl)nicotinamide formation at 2 uM after 4 hrs by LC-MS/MS analysis; format: ADME, cell-based, Hepatocyte
[4] = Drug metabolism in rat hepatocytes assessed as M2 metabolite formation at 2 uM after 4 hrs by LC-MS/MS analysis; format: ADME, cell-based, Hepatocyte
[5] = Drug metabolism in dog hepatocytes assessed as M2 metabolite formation at 2 uM after 4 hrs by LC-MS/MS analysis; format: ADME, cell-based, Canis lupus familiaris, Hepatocyte
[6] = Drug metabolism in human hepatocytes assessed as M2 metabolite formation at 2 uM after 4 hrs by LC-MS/MS analysis; format: ADME, cell-based, Hepatocyte
[7] = Drug metabolism in rat hepatocytes assessed as 2-(difluoromethyl)-5-((3-hydroxy-2,2-dimethylpropanamido)methyl)-N-(4-methyl-5-(4-(trifluoromethyl)phenyl)-1H-imidazol-2-yl)nicotinamide formation at 2 uM after 4 hrs by LC-MS/MS analysis; format: ADME, cell-based, Hepatocyte
[8] = Drug metabolism in dog hepatocytes assessed as 2-(difluoromethyl)-5-((3-hydroxy-2,2-dimethylpropanamido)methyl)-N-(4-methyl-5-(4-(trifluoromethyl)phenyl)-1H-imidazol-2-yl)nicotinamide formation at 2 uM after 4 hrs by LC-MS/MS analysis; format: ADME, cell-based, Canis lupus familiaris, Hepatocyte
[9] = Drug metabolism in human hepatocytes assessed as 2-(difluoromethyl)-5-((3-hydroxy-2,2-dimethylpropanamido)methyl)-N-(4-methyl-5-(4-(trifluoromethyl)phenyl)-1H-imidazol-2-yl)nicotinamide formation at 2 uM after 4 hrs by LC-MS/MS analysis; format: ADME, cell-based, Hepatocyte
[10] = Drug metabolism in dog hepatocytes assessed as 2-(difluoromethyl)-5-((3-hydroxy-2,2-dimethylpropanamido)methyl)-N-(4-(hydroxymethyl)-5-(4-(trifluoromethyl)phenyl)-1H-imidazol-2-yl)nicotinamide formation at 2 uM after 4 hrs by LC-MS/MS analysis; format: ADME, cell-based, Canis lupus familiaris, Hepatocyte
[11] = Drug metabolism in human liver microsomes assessed as metabolite M2 formation at 2 uM in presence of 1:1 ratio of unlabeled GSH and [glycine 13C2,15N]-labelled GSH after 0.5 hrs by HPLC-MS analysis; format: ADME, microsome
[12] = Drug metabolism in human liver microsomes assessed as M5 metabolite formation at 2 uM in presence of 1:1 ratio of unlabeled GSH and [glycine 13C2,15N]-labelled GSH after 0.5 hrs by HPLC-MS analysis; format: ADME, microsome
[13] = Drug metabolism in human liver microsomes assessed as metabolite M6 formation at 2 uM in presence of 1:1 ratio of unlabeled GSH and [glycine 13C2,15N]-labelled GSH after 0.5 hrs by HPLC-MS analysis; format: ADME, microsome
[14] = Drug metabolism in Sprague-Dawley rat plasma assessed as N-(4-methyl-5-(4-(trifluoromethyl)phenyl)-1H-imidazol-2-yl)acetamide formation at 1000 mg/kg, po measured after 2 hrs post dose by LC/MS analysis; format: ADME, organism-based; settings: in vivo
[15] = Drug metabolism in Beagle dog plasma assessed as N-(4-methyl-5-(4-(trifluoromethyl)phenyl)-1H-imidazol-2-yl)acetamide formation at 300 to 600 mg/kg, po measured after 2 hrs post dose by LC/MS analysis; format: ADME, organism-based, Canis lupus familiaris; settings: in vivo
[16] = Drug metabolism in Beagle dog plasma assessed as (2S,3S,4S,5R,6R)-3,4,5-trihydroxy-6-(4-methyl-5-(4-(trifluoromethyl)phenyl)-1H-imidazol-2-ylamino)tetrahydro-2H-pyran-2-carboxylic acid formation at 300 to 600 mg/kg, po measured after 2 hrs post dose by LC/MS analysis; format: ADME, organism-based, Canis lupus familiaris; settings: in vivo

Measured: Drug metabolism

Cc1nc(NC(=O)c2cc(CNC(=O)C(C)(C)C)cnc2C(F)F)[nH]c1-c1ccc(C(F)(F)F)cc1
Metabolite_Detected: all assays above

Source: ChEMBL document CHEMBL4219066, “Identification and Mitigation of Reactive Metabolites of 2-Aminoimidazole-Containing Microsomal Prostaglandin E Synthase-1 Inhibitors Terminated Due to Clinical Drug-Induced Liver Injury” (J Med Chem, 2018)
